According to PubChem BioAssay (NCI):
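All cell lines were grown in 96-well plates and treated with compound for 48 hours. TGI is the concentration that stops growth completely.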

Tests used:
Assay in all cases: inhibition of tumour cell growth, NCI panel, 48 h
786-0 renal = system: 786-0 renal
A498 renal = system: A498 renal
A549 NSCLC = system: A549 NSCLC
ACHN renal = system: ACHN renal
BT-549 breast = system: BT-549 breast
CAKI-1 renal = system: CAKI-1 renal
COLO 205 colon = system: COLO 205 colon
DU-145 prostate = system: DU-145 prostate
EKVX NSCLC = system: EKVX NSCLC
HCC-2998 colon = system: HCC-2998 colon
HCT-116 colon = system: HCT-116 colon
HCT-15 colon = system: HCT-15 colon
HL-60(TB) leukemia = system: HL-60(TB) leukemia
HOP-62 NSCLC = system: HOP-62 NSCLC
HOP-92 NSCLC = system: HOP-92 NSCLC
HS 578T breast = system: HS 578T breast
HT29 colon = system: HT29 colon
IGROV1 ovarian = system: IGROV1 ovarian
K-562 leukemia = system: K-562 leukemia
KM12 colon = system: KM12 colon
LOX IMVI melanoma = system: LOX IMVI melanoma
M14 melanoma = system: M14 melanoma
MALME-3M melanoma = system: MALME-3M melanoma
MCF7 breast = system: MCF7 breast
MDA-MB-231 breast = system: MDA-MB-231 breast
MDA-MB-435 = system: MDA-MB-435
MDA-N = system: MDA-N
MOLT-4 leukemia = system: MOLT-4 leukemia
NCI-H226 lung = system: NCI-H226 lung
NCI-H23 lung = system: NCI-H23 lung
NCI-H460 lung = system: NCI-H460 lung
NCI-H522 lung = system: NCI-H522 lung
NCI/ADR-RES ovarian = system: NCI/ADR-RES ovarian
OVCAR-3 ovarian = system: OVCAR-3 ovarian
OVCAR-4 ovarian = system: OVCAR-4 ovarian
OVCAR-5 ovarian = system: OVCAR-5 ovarian
OVCAR-8 ovarian = system: OVCAR-8 ovarian
PC-3 prostate = system: PC-3 prostate
RPMI-8226 leukemia = system: RPMI-8226 leukemia
RXF 393 renal = system: RXF 393 renal
SF-268 CNS = system: SF-268 CNS
SF-295 CNS = system: SF-295 CNS
SF-539 CNS = system: SF-539 CNS
SK-MEL-2 melanoma = system: SK-MEL-2 melanoma
SK-MEL-28 melanoma = system: SK-MEL-28 melanoma
SK-MEL-5 melanoma = system: SK-MEL-5 melanoma
SN12C renal = system: SN12C renal
SNB-19 CNS = system: SNB-19 CNS
SR leukemia = system: SR leukemia
SW-620 colon = system: SW-620 colon
TK-10 renal = system: TK-10 renal
U251 CNS = system: U251 CNS
UACC-257 melanoma = system: UACC-257 melanoma
UACC-62 melanoma = system: UACC-62 melanoma
UO-31 renal = system: UO-31 renal

CC(C)OC(=O)C1=C2c3ncccc3C(=O)N2[C@@H](Cl)[C@@H](Cl)[C@@H]1Cl
TGI (786-0 renal): > 100 µM | TGI (A498 renal): > 100 µM | TGI (A549 NSCLC): > 100 µM | TGI (ACHN renal): > 100 µM | TGI (BT-549 breast): > 100 µM | TGI (CAKI-1 renal): > 100 µM | TGI (COLO 205 colon): > 100 µM | TGI (DU-145 prostate): > 100 µM | TGI (EKVX NSCLC): > 100 µM | TGI (HCC-2998 colon): > 100 µM | TGI (HCT-116 colon): > 100 µM | TGI (HCT-15 colon): > 100 µM | TGI (HL-60(TB) leukemia): > 100 µM | TGI (HOP-62 NSCLC): > 100 µM | TGI (HOP-92 NSCLC): > 100 µM | TGI (HS 578T breast): > 100 µM | TGI (HT29 colon): > 100 µM | TGI (IGROV1 ovarian): > 100 µM | TGI (K-562 leukemia): > 100 µM | TGI (KM12 colon): > 100 µM | TGI (LOX IMVI melanoma): > 100 µM | TGI (M14 melanoma): > 100 µM | TGI (MALME-3M melanoma): > 100 µM | TGI (MCF7 breast): > 100 µM | TGI (MDA-MB-231 breast): > 100 µM | TGI (MDA-MB-435): > 100 µM | TGI (MDA-N): > 100 µM | TGI (MOLT-4 leukemia): 95.9 µM | TGI (NCI-H226 lung): > 100 µM | TGI (NCI-H23 lung): > 100 µM | TGI (NCI-H460 lung): > 100 µM | TGI (NCI-H522 lung): > 100 µM | TGI (NCI/ADR-RES ovarian): > 100 µM | TGI (OVCAR-3 ovarian): > 100 µM | TGI (OVCAR-4 ovarian): > 100 µM | TGI (OVCAR-5 ovarian): > 100 µM | TGI (OVCAR-8 ovarian): > 100 µM | TGI (PC-3 prostate): > 100 µM | TGI (RPMI-8226 leukemia): > 100 µM | TGI (RXF 393 renal): > 100 µM | TGI (SF-268 CNS): > 100 µM | TGI (SF-295 CNS): > 100 µM | TGI (SF-539 CNS): > 100 µM | TGI (SK-MEL-2 melanoma): > 100 µM | TGI (SK-MEL-28 melanoma): > 100 µM | TGI (SK-MEL-5 melanoma): > 100 µM | TGI (SN12C renal): 90.4 µM | TGI (SNB-19 CNS): > 100 µM | TGI (SR leukemia): > 100 µM | TGI (SW-620 colon): > 100 µM | TGI (TK-10 renal): > 100 µM | TGI (U251 CNS): > 100 µM | TGI (UACC-257 melanoma): > 100 µM | TGI (UACC-62 melanoma): > 100 µM | TGI (UO-31 renal): > 100 µM
